Laboratory results taken from patent US10597388B2, “Pyridazinone herbicides” (FMC CORPORATION, priority 2014, dated 2020).

Key:
Assay type in all cases: in vivo
[1] = test system: oilseed rape (Brassica napus); experiment: Test C greenhouse herbicide test, pre- and postemergence
Summary of the method: (§1)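 Percent-control ratings (0 none, 100 complete) came from visual comparison with controls held alongside in the greenhouse for 13–15 d. Treatments covered soil application at sowing and foliar application to young plants 2–18 cm tall.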

[2] = test system: johnsongrass (Sorghum halepense); experiment: as above
Summary of the method: as §1

[3] = test system: ragweed (common ragweed, Ambrosia elatior); experiment: as above
Summary of the method: as §1

[4] = test system: foxtail, giant (giant foxtail, Setaria faberii); experiment: Test A greenhouse herbicide test, pre- and postemergence
Summary of the method: (§2)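 Visual injury ratings, 0 (no effect) to 100 (complete control), versus untreated plants after roughly 10 d in a greenhouse. Compounds, formulated in a surfactant-containing non-phytotoxic solvent, were sprayed on loam–sand soil after sowing (pre) or on one- to two-leaf plants 2–10 cm tall (post).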

corn (Zea mays) = experiment: as above; conditions: Postemergence; for Plant response rating, Corn: 125 g ai/ha, 0 to 100 scale where 0 is no effect and 100 is complete control; for Corn plant response rating: 500 g ai/ha, 0 to 100 scale, 0 is no effect, 100 is complete control
Summary of the method: as §2

kochia (Kochia scoparia) = experiment: as above
Summary of the method: as §2

[5] = test system: ragweed (common ragweed, Ambrosia elatior); experiment: as above
Summary of the method: as §2

[6] = test system: ryegrass, Italian (Italian ryegrass, Lolium multiflorum); experiment: as above
Summary of the method: as §2

[7] = test system: wheat (Triticum aestivum); experiment: as above; conditions: Postemergence; for Plant response rating, Wheat: 125 g ai/ha, 0 to 100 scale where 0 is no effect and 100 is complete control; for Wheat plant response rating: 500 g ai/ha, 0 to 100 scale, 0 is no effect, 100 is complete control
Summary of the method: as §2

[8] = test system: pigweed (Amaranthus retroflexus); experiment: as above
Summary of the method: as §2

[9] = Postemergence, 31 g ai/ha, 0 to 100 scale (0 no effect, 100 complete control)
[10] = Postemergence, 125 g ai/ha, scale 0 to 100, 0 is no effect, 100 is complete control
[11] = Postemergence, 250 g ai/ha, scale 0 to 100, 0 no effect, 100 complete control, 13 to 15 d
[12] = postemergence, 62 g ai/ha, scale 0 to 100, 0 no effect, 100 complete control
[13] = Postemergence, 125 g ai/ha, 0 to 100 scale where 0 is no effect and 100 is complete control
[14] = Postemergence, 500 g ai/ha, 0 to 100 scale, 0 is no effect, 100 is complete control
[15] = Preemergence, 125 g ai/ha, 0 to 100 scale where 0 is no effect and 100 is complete control
[16] = Preemergence, 500 g ai/ha, 0 to 100 scale where 0 is no effect and 100 is complete control
[17] = Preemergence, 31 g ai/ha, scale 0 to 100, 0 is no effect, 100 is complete control
[18] = Preemergence, 62 g ai/ha, scale 0 to 100, 0 is no effect, 100 is complete control
[19] = Preemergence, 125 g ai/ha, scale 0 to 100, 0 is no effect, 100 is complete control
[20] = Preemergence, 250 g ai/ha, scale 0 to 100, 0 no effect, 100 complete control
[21] = Preemergence, 500 g ai/ha, 0 to 100 scale, 0 no effect, 100 complete control

CCC(=O)Oc1c(C)nn(C)c(=O)c1-c1c(C)ccc2ccccc12 [Compound 78]
70: Foxtail, Giant plant response rating [4, 14]
60: Plant response rating, Ragweed [3, 10] | Plant response rating, Foxtail, Giant [4, 16] | Ragweed plant response rating [5, 15] | Wheat plant response rating [7] | Plant response rating, Pigweed [8, 13] | Pigweed plant response rating [8, 15]
75: Plant response rating, Ragweed [3, 11]
80: Ragweed plant response rating [5, 14] | Plant response rating, Ryegrass, Italian [6, 13]
0: Oilseed Rape plant response rating [1, 9] | Plant response rating, Oilseed Rape [1, 10] | Oilseed Rape plant response rating [1, 12] | Plant response rating, Corn (corn (Zea mays)) | Corn plant response rating (corn (Zea mays)) | Plant response rating, Wheat [7]
50: Plant response rating, Kochia (kochia (Kochia scoparia); [13])
10: Ragweed plant response rating [3, 9]
90: Kochia plant response rating (kochia (Kochia scoparia); [14]) | Plant response rating, Ragweed [5, 16] | Pigweed plant response rating [8, 14]
40: Plant response rating, Ragweed [5, 13]
100: Plant response rating, Kochia (kochia (Kochia scoparia); [16]) | Ryegrass, Italian plant response rating [6, 14] | Ryegrass, Italian plant response rating [6, 15] | Plant response rating, Ryegrass, Italian [6, 16] | Plant response rating, Pigweed [8, 16]
5: Plant response rating, Oilseed Rape [1, 11] | Johnsongrass plant response rating [2, 9] | Plant response rating, Johnsongrass [2, 10] | Plant response rating, Johnsongrass [2, 11] | Johnsongrass plant response rating [2, 12]
20: Ragweed plant response rating [3, 12] | Plant response rating, Foxtail, Giant [4, 13] | Foxtail, Giant plant response rating [4, 15] | Kochia plant response rating (kochia (Kochia scoparia); [15])

CCc1sc2ccc(C)cc2c1-c1c(O)c(C)nn(C)c1=O [Compound 47]
85: Plant response rating, Ragweed [3, 18]
10: Plant response rating, Oilseed Rape [1, 11] | Oilseed Rape plant response rating [1, 20] | Johnsongrass plant response rating [2, 9] | Johnsongrass plant response rating [2, 12] | Corn plant response rating (corn (Zea mays)) | Kochia plant response rating (kochia (Kochia scoparia); [15])
5: Plant response rating, Oilseed Rape [1, 10]
0: Oilseed Rape plant response rating [1, 9] | Plant response rating, Oilseed Rape [1, 17] | Plant response rating, Oilseed Rape [1, 18] | Plant response rating, Oilseed Rape [1, 19] | Oilseed Rape plant response rating [1, 12] | Plant response rating, Johnsongrass [2, 17] | Plant response rating, Johnsongrass [2, 18] | Plant response rating, Johnsongrass [2, 19] | Johnsongrass plant response rating [2, 20] | Plant response rating, Corn (corn (Zea mays)) | Plant response rating, Wheat [7] | Wheat plant response rating [7]
60: Ryegrass, Italian plant response rating [6, 15]
100: Plant response rating, Ragweed [3, 11] | Ragweed plant response rating [3, 20] | Plant response rating, Ragweed [5, 13] | Ragweed plant response rating [5, 14] | Plant response rating, Pigweed [8, 13] | Pigweed plant response rating [8, 14] | Plant response rating, Pigweed [8, 21]
98: Plant response rating, Ragweed [3, 10] | Plant response rating, Ragweed [3, 19] | Ragweed plant response rating [3, 12]
25: Plant response rating, Johnsongrass [2, 11]
20: Plant response rating, Johnsongrass [2, 10]
90: Plant response rating, Kochia (kochia (Kochia scoparia); [13]) | Kochia plant response rating (kochia (Kochia scoparia); [14]) | Plant response rating, Kochia (kochia (Kochia scoparia); [21]) | Plant response rating, Ragweed [5, 21] | Plant response rating, Ryegrass, Italian [6, 21]
70: Foxtail, Giant plant response rating [4, 15] | Plant response rating, Ryegrass, Italian [6, 13] | Pigweed plant response rating [8, 15]
80: Ragweed plant response rating [3, 9] | Plant response rating, Foxtail, Giant [4, 13] | Foxtail, Giant plant response rating [4, 14] | Plant response rating, Foxtail, Giant [4, 21] | Ragweed plant response rating [5, 15] | Ryegrass, Italian plant response rating [6, 14]
50: Plant response rating, Ragweed [3, 17]
